Where “and” joins values, the source holds several entries; their conditions need not be identical. Equal entries are not always repeated.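 96-well plates; 48 h exposure; 5 concentrations. Endpoints by linear interpolation between flanking doses. Not reached: highest tested concentration assigned. GI50 marks 50% less growth. TGI marks complete inhibition of growth.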

Test systems include MCF7 breast; SK-MEL-2 melanoma; SF-295 CNS; UO-31 renal; U251 CNS; OVCAR-3 ovarian; SR leukemia; SNB-75 CNS.
Common to all, as to assay: NCI anticancer screen, dose series, 48 h

Turning to `Cc1cn2c(/C=N/N=C(N)N)c(-c3cccnc3)nc2s1`, the GI50 with MCF7 breast was 20.8 µM; in the assay with SK-MEL-2 melanoma, 18.7 µM; with SF-295 CNS, 11.9 µM; with UO-31 renal it was 6.1 µM; in the assay on U251 CNS it was 10.2 µM; in the assay with OVCAR-3 ovarian it was 10.3 µM. For the same compound, the TGI was more than 100 µM in the assay on MCF7 breast; 45.5 µM in the assay on SK-MEL-2 melanoma; 26.5 µM in the assay with SF-295 CNS; 21.4 µM with UO-31 renal; 23.7 µM with U251 CNS; 22.9 µM in the assay on OVCAR-3 ovarian.

`NC1=NCCN1CC(=O)O`: the GI50 with MCF7 breast, with SK-MEL-2 melanoma, in the assay on SR leukemia, in the assay with UO-31 renal, with U251 CNS and in the assay on OVCAR-3 ovarian was more than 10000 µM throughout. The TGI with MCF7 breast, in the assay on SK-MEL-2 melanoma, in the assay on SR leukemia, in the assay on SF-295 CNS, with UO-31 renal and in the assay on U251 CNS was more than 10000 µM in each case. The compound also returned a TGI with OVCAR-3 ovarian of more than 10000 µM.

For `C/C(=C\COc1c2c(cc3c1CCO3)OC1(C=C2)OC(CC/C(C)=C/COc2c3ccoc3cc3oc(=O)ccc23)C(C)(C)O1)CCC(O)C(C)(C)O` (configuration not stated), the GI50 is 5.62 µM in the assay on MCF7 breast; 9.58 µM with SK-MEL-2 melanoma; 5.04 µM in the assay on SR leukemia; 21.1 µM in the assay on SNB-75 CNS; 9.09 µM in the assay on SF-295 CNS; 25.7 µM with UO-31 renal. Further, the GI50 is 44.4 µM in the assay with U251 CNS and 15 µM in the assay with OVCAR-3 ovarian. The TGI in the assay on MCF7 breast, in the assay on SK-MEL-2 melanoma, in the assay on SR leukemia, with SNB-75 CNS, in the assay with SF-295 CNS and in the assay on UO-31 renal was more than 100 µM each time. The TGI with U251 CNS and in the assay with OVCAR-3 ovarian was more than 100 µM each time.

Take `O=C(NCc1ccncc1)C12CC3CC(C1)CC(c1ccc(Cl)cc1)(C3)C2`: the GI50 in the assay on MCF7 breast is 10.2 µM; with SK-MEL-2 melanoma, 14.2 µM; in the assay on SR leukemia, 7.98 µM; with SNB-75 CNS, 13.2 µM; with SF-295 CNS, 12.7 µM; in the assay with UO-31 renal it was 10.2 µM. Also, the GI50 with U251 CNS is 14.2 µM; in the assay on OVCAR-3 ovarian it was 13.2 µM. The TGI stood at 27.8 µM in the assay with MCF7 breast; 28.1 µM with SK-MEL-2 melanoma; 35.7 µM in the assay with SR leukemia; 27.2 µM with SNB-75 CNS; 27.3 µM with SF-295 CNS; 22 µM in the assay with UO-31 renal. The TGI was determined as 28.6 µM in the assay with U251 CNS and 27.3 µM in the assay on OVCAR-3 ovarian.

With `COc1cccc2c1c(C1=C(c3cn(C)c4ccccc34)C(=O)NC1=O)cn2C`, the GI50 in the assay with MCF7 breast is more than 25 µM; in the assay on SK-MEL-2 melanoma, more than 25 µM; in the assay on SR leukemia, more than 16.6 µM; in the assay on SNB-75 CNS, more than 25 µM; in the assay with SF-295 CNS, more than 25 µM; in the assay with UO-31 renal it was more than 25 µM. Further, the GI50 in the assay with U251 CNS and in the assay with OVCAR-3 ovarian was more than 25 µM in each case. The TGI in the assay on MCF7 breast, with SK-MEL-2 melanoma, in the assay on SR leukemia, with SNB-75 CNS, in the assay on SF-295 CNS and in the assay on UO-31 renal was more than 25 µM throughout. For the same compound, the TGI in the assay with U251 CNS and in the assay on OVCAR-3 ovarian was more than 25 µM in each case.

As to `COc1cc(-c2ncn(/C=C\C(=O)OC(C)C)n2)cc(C(F)(F)F)c1`, the GI50 in the assay on MCF7 breast is 0.0364 µM and 0.0477 µM; in the assay with SK-MEL-2 melanoma it was 0.0676 µM and 0.0501 µM; with SR leukemia, 0.0354 µM; in the assay with SNB-75 CNS, 0.0748 µM and 0.121 µM; in the assay on SF-295 CNS, 0.0891 µM and 0.196 µM; with UO-31 renal it was 0.0569 µM and 0.0489 µM. For the same compound, the GI50 in the assay on U251 CNS was 0.0335 µM and 0.0683 µM; in the assay with OVCAR-3 ovarian, 0.0406 µM and 0.0353 µM. Further, the TGI was 1.67 µM and 10.4 µM in the assay on MCF7 breast; 1.53 µM and 0.489 µM in the assay with SK-MEL-2 melanoma; 14.3 µM and > 100 µM in the assay on SR leukemia; 0.999 µM and 0.904 µM in the assay on SNB-75 CNS; 14.1 µM and 11.8 µM in the assay on SF-295 CNS; 4.18 µM and 11.7 µM with UO-31 renal. The TGI is 5.24 µM and 11.4 µM in the assay on U251 CNS; 1.29 µM and 0.857 µM in the assay with OVCAR-3 ovarian.

In the case of `CCCCN(CCCC)CCCn1c(=O)c2c3ccccc3n(C)c2n2nnc(-c3ccccc3)c12`, the GI50 in the assay on MCF7 breast was 37.2 µM; in the assay on SK-MEL-2 melanoma, more than 100 µM; with SNB-75 CNS, 15.1 µM; in the assay on SF-295 CNS it was 31.9 µM; with UO-31 renal it was 6.06 µM; in the assay with U251 CNS, 32.9 µM. In addition, in the assay on OVCAR-3 ovarian, the GI50 was 48.6 µM. The TGI in the assay on MCF7 breast is more than 100 µM; in the assay with SK-MEL-2 melanoma, more than 100 µM; with SNB-75 CNS it was 56.2 µM; with SF-295 CNS it was more than 100 µM; in the assay on UO-31 renal, 46.8 µM; with U251 CNS it was more than 100 µM. The compound further yielded a TGI with OVCAR-3 ovarian of more than 100 µM.

As to `CC(=O)C1(N=Nc2ccc(S(N)(=O)=O)cc2)CCOC1=O` (configuration not stated), the TGI with MCF7 breast, in the assay with SK-MEL-2 melanoma, in the assay with SNB-75 CNS, in the assay on SF-295 CNS, in the assay with UO-31 renal and in the assay with U251 CNS was more than 100 µM each time. The compound also gave a TGI with OVCAR-3 ovarian of more than 100 µM.

For the compound `S=c1nc(Cl)cc2[nH]c(Cl)cn12`, the TGI in the assay with MCF7 breast was 19.3 µM; with SK-MEL-2 melanoma, more than 100 µM; with SNB-75 CNS, 13.8 µM; in the assay on SF-295 CNS it was 14.4 µM; with UO-31 renal, more than 100 µM; with U251 CNS, more than 100 µM. In the assay with OVCAR-3 ovarian, this compound came in with a TGI of 6.49 µM.

On to `OCC1OC(n2cnc3c(Cl)nc(Cl)cc32)C(O)C1O` (configuration not stated), for which the GI50 in the assay with MCF7 breast, with SF-295 CNS, in the assay on UO-31 renal and in the assay with OVCAR-3 ovarian was more than 100 µM each time. For the same compound, the TGI in the assay on MCF7 breast, with SF-295 CNS, in the assay on UO-31 renal and with OVCAR-3 ovarian was more than 100 µM throughout.

`O=c1oc2ccc(-n3c(=O)c4ccccc4c4ccccc4c3=O)cc2c2ccccc12`: the TGI was more than 100 µM in the assay with MCF7 breast; more than 100 µM in the assay on SK-MEL-2 melanoma; 85.7 µM in the assay on SNB-75 CNS; more than 100 µM in the assay with SF-295 CNS; more than 100 µM in the assay with UO-31 renal; 63.6 µM with U251 CNS. The TGI in the assay on OVCAR-3 ovarian is more than 100 µM.

(Values after PubChem BioAssay (NCI).)
